{"source": "patent EP0823908B1", "about": "“PYRIDO[2,3-d]PYRIMIDINES FOR INHIBITING PROTEIN TYROSINE KINASE MEDIATED [sequence] PROLIFERATION” (Warner-Lambert Company LLC, priority 1995, dated 1996)", "key": {"[1]": {"biological_target": "T1, Human EGF receptor tyrosine kinase (Homo sapiens, UniProt P00533)", "T1 construct": "Human EGF receptor tyrosine kinase was isolated from A431 epidermoid carcinoma cells; endogenous in cells; host or cells: A431 epidermoid carcinoma cells", "T1 sequence (P00533 25-1210)": "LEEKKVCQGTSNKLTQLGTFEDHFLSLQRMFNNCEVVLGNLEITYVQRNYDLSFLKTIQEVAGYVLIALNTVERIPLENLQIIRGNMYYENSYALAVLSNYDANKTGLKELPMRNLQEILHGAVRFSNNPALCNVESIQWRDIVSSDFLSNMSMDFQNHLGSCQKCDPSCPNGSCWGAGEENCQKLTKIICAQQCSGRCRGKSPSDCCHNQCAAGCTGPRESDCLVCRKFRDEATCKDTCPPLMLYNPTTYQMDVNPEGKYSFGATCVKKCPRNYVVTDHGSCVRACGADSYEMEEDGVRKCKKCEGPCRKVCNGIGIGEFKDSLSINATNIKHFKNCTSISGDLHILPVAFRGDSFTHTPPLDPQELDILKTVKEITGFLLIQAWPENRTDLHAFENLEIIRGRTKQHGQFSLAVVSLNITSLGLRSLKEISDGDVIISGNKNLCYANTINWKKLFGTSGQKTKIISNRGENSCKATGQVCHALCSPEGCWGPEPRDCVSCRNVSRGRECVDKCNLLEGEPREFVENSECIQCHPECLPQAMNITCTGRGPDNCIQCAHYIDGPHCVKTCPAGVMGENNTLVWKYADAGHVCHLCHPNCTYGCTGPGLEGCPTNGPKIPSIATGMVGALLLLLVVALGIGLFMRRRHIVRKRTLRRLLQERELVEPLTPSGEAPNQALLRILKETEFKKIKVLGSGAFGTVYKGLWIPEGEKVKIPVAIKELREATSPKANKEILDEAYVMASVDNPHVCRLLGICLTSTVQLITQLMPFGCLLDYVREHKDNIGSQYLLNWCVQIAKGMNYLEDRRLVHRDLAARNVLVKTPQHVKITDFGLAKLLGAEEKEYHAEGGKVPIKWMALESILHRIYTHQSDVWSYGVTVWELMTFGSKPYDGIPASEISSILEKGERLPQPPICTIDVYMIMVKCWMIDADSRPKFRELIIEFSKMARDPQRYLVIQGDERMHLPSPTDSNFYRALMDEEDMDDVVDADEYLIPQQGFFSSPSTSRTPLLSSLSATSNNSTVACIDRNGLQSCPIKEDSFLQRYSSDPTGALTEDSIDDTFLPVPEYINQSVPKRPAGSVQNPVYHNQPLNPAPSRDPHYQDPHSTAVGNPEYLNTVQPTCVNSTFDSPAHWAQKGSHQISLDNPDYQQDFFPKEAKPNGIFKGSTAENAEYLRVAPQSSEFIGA", "assay": "EGF receptor tyrosine kinase enzyme assay (substrate peptide phosphorylation)", "type": "biochemical", "conditions": "read-out: EGF-FL IC50"}, "HCT-8": {"test_system": "HCT-8", "assay": "Soft agar colony formation, human colon adenocarcinoma cells", "type": "cell-based", "conditions": "HCT-8, 336 h, read-out: Inhibition of Human Colon Adenocarcinoma IC50, HCT-8", "experimental": "(§1) Three such human cell lines were identified as HCT-8, SW-620, and HT-29. In a typical assay, the cells are suspended in 0.3% soft agar containing an invention compound at various concentration levels, and are plated into six-well plates, each plate containing a 1% agar plug. The cell plates are incubated at 37°C in a humidified carbon dioxide (5%) incubator, generally for 2 weeks. At the end of the incubation period, colonies of cells are detected by staining the wells with 1 mg/mL of p-iodonitrotetrazolium violet. The cells are counted on an optical colony counter. […] TABLE III. Inhibition of Human Colon Adenocarcinoma IC50 (µM)"}, "HT-29": {"test_system": "HT-29", "assay": "Soft agar colony formation, human colon adenocarcinoma cells", "type": "cell-based", "conditions": "HT-29, 336 h, read-out: Inhibition of Human Colon Adenocarcinoma IC50, HT-29", "experimental": "as §1"}, "SW-620": {"test_system": "SW-620", "assay": "Soft agar colony formation, human colon adenocarcinoma cells", "type": "cell-based", "conditions": "SW-620, 336 h, read-out: Inhibition of Human Colon Adenocarcinoma IC50, SW-620", "experimental": "as §1"}}}
{"smiles": "Cn1c(=O)c(-c2c(Cl)cccc2Cl)cc2cnc(Nc3ccccc3)nc21", "note": "[Example 54, 6-(2,6-Dichlorophenyl)-8-methyl-2-phenylamino-8H-pyrido[2,3-d]pyrimidin-7-one]", "values": [{"measurement": "IC50", "setting": "[1]", "result": 0.078, "unit": "µM"}, {"measurement": "IC50", "setting": "HCT-8", "result": 0.52, "unit": "µM"}, {"measurement": "IC50", "setting": "HT-29", "result": 0.49, "unit": "µM"}, {"measurement": "IC50", "setting": "SW-620", "result": 0.14, "unit": "µM"}]}
